# Earlier results, collected in article PMC10878532, “Sperm Toolbox—A selection of small molecules to study human spermatozoa” (PLOS ONE, 2024).
# Where a name gives a salt, the structure may show the parent alone.
# B1: Urinastatin (protein, UniProt P02760 206-352, looked up)
# Inter-alpha-trypsin inhibitor …: AVLPQEEEGSGGGQLVTEVTKKEDSCQLGYSAGPCMGMTSRYFYNGTSMACETFQYGGCMGNGNNFVTEKECLQTCRTVAACNLPIVRGPCRAFIQLWAFDAVKGKCVLFPYGGCQGNGNKFYSEKECREYCGVPGDGDEELLRFSN
# modifications: Inter-alpha-trypsin inhibitor light chain
# notes: interferes with liquefaction
# System: spermatozoa
# Design: method as in per compound as listed in column References of Table 1
# Conditions: summaries of reported effects; ref per compound as listed in Table 1; cited from earlier work
row,Molecule,Published Phenotype
1,Nc1nonc1C(=O)c1cccc(OCc2nc3ccccc3[nH]2)c1 [ASI-8],Blocks soluble adenyl cyclase (sAC)
2,COc1cc2nc(N(C)CCCNC(=O)C3CCCO3)nc(N)c2cc1OC (stereo not shown) [Alfuzosin],Interferes with ejaculation
3,CCCCC/C=C\C/C=C\C/C=C\C/C=C\CCCC(=O)NCCO [Anandamide],Reduces sperm motility
4,CC(=O)N1CCC(C(=O)N(CCCN2CCN(Cc3ccc(F)cc3)CC2)c2ccc(C)c(Cl)c2)CC1 [B07 hydrochloride],Reduction of sperm motility
5,CC1(C)CC=C(c2ccccc2)c2cc(/C=C/c3ccc(C(=O)O)cc3)ccc21 [BMS-189453],Interferes with spermatogenesis
6,Cn1c(=O)c2c(-c3ccccc3)n3c(c2n(C)c1=O)[C@H](c1ccc(Br)o1)Oc1ccc(C(=O)O)cc1-3 [BPO-27],CTFR inhibitor patent
7,Oc1c(Cl)cc(Cl)cc1Sc1cc(Cl)cc(Cl)c1O [Bithionol],Blocks sAC
8,O=C(O)c1ccc(/C=C2/SC(=S)N(c3cccc(C(F)(F)F)c3)C2=O)cc1 [CTFRinh-172],Blocks progesterone induced acrosome reaction; blocks sperm hyperactivation; blocks recombinant ZP3 induced acrosome reaction
9,CCOC(=O)CSc1nc(=O)c(NCC(=O)OC)n[nH]1 [Compound B4],Reduces sperm motility
10,OCCN(CCO)c1nc(N2CCCCC2)c2nc(N(CCO)CCO)nc(N3CCCCC3)c2n1 [Dipyridamole],Enhances sperm motility
11,CCN(CC)C(=S)SSC(=S)N(CC)CC [Disulfiram],immotile sperm; spermicidal
12,COc1ccc2nc([S@@+]([O-])Cc3ncc(C)c(OC)c3C)[nH]c2c1 [Esomeprazole],Reduces sperm motility
13,COC(=O)c1c(C)[nH]c(C)c1C(=O)c1ccccc1Cc1ccccc1 [FPL 64176],Modulates evoked Ca^2+ response
14,CC(C)C(C(=O)OC(C#N)c1cccc(Oc2ccccc2)c1)c1ccc(Cl)cc1 (stereo not shown) [Fenvalerate],Blocks progesterone induced acrosome reaction
15,C=C[C@@]1(C)CC(=O)[C@]2(O)[C@@]3(C)[C@@H](O)CCC(C)(C)[C@@H]3[C@H](O)[C@H](OC(C)=O)[C@@]2(C)O1 [Forskolin],Stimulates acrosome reaction
16,CN(C)CCCn1cc(C2=C(c3c[nH]c4ccccc34)C(=O)NC2=O)c2ccccc21 [GF 109203X],Blocks progesterone induced acrosome reaction; blocks progesterone induced Ca^2+ response
17,CCc1cc(Nc2nccc(-c3c(-c4ccc(OC)c(C(=O)Nc5c(F)cccc5F)c4)nc4ccccn34)n2)c(OC)cc1N1CCC(N2CCN(S(C)(=O)=O)CC2)CC1 [GSK1904529A],Inhibition of hyperactivation
18,COc1cc2ncn(-c3cc(OCc4ccccc4C(F)(F)F)c(C(N)=O)s3)c2cc1OC [GW 843682X],Enhances sperm motility
19,O=c1c(-c2ccc(O)cc2)coc2cc(O)cc(O)c12 [Genistein],Blocks progesterone induced acrosome reaction; blocks progesterone induced Ca^2+ response
20,Cc1cc2c(C(C)C)c(O)c(O)c(C=O)c2c(O)c1-c1c(C)cc2c(C(C)C)c(O)c(O)c(C=O)c2c1O [Gossypol],Causes azoospermia

row,Molecule,Published Phenotype
1,O=S(=O)(NCCNC/C=C/c1ccc(Br)cc1)c1cccc2cnccc12 [H 89 dihydrochloride],Evokes Ca^2+ signaling in sperm cells
2,O=C(c1cccs1)c1no[n+]([O-])c1C(=O)c1cccs1 [HC-056456],Blocks Ca^2+ and Na^+ entry; blocks onset of hyperactive motility
3,CO[C@H]1[C@@H](OC)C[C@H](C)[C@@H](OC)C2=CC(=O)C=C(NC(=O)/C(C)=C/C=C\[C@H](OC)[C@@H](OC(N)=O)/C(C)=C/[C@@H]1C)C2=O [Herbimycin a],Blocks progesterone induced acrosome reaction; blocks progesterone induced Ca^2+ response
4,Oc1c(Cl)cc(Cl)c(Cl)c1Cc1c(O)c(Cl)cc(Cl)c1Cl [Hexachlorophene],Reduces sperm motility; blocks sAC
5,CC(C)Cn1c(=O)n(C)c(=O)c2[nH]cnc21 [IBMX],Modulates capacitation
6,CC(C)Cn1cnc2c(N)nc3ccccc3c21 [Imiquimod],Reduction of sperm motility; only sperm with X chromosome
7,Cc1sc2c(c1C)C(c1ccc(Cl)cc1)=N[C@@H](CC(=O)OC(C)(C)C)c1nnc(C)n1-2 [JQ1],Interferes with spermatogenesis; reduces sperm count; reduces motility
8,COc1cc(SC)ccc1C(=O)N1CCC(Cc2ccccc2)CC1 [JX 401],Modulates Ca^2+ response
9,CCCCCCOC(=O)[C@]1(O)C[C@@H]2O[C@@]1(C)n1c3ccccc3c3c4c(c5c6ccccc6n2c5c31)C(=O)NC4 [KT 5720],Evokes Ca^2+ signaling in sperm
10,Nc1nc(Cl)cc(N(Cc2cccs2)C2CC2)n1 [LRE1],Prevents hyperactivation
11,CC(C)c1ccc2c(c1)CC[C@H]1[C@](C)(CN)CCC[C@]21C [Leelamine hydrochloride],Modulates P4 evoked Ca^2+ response
12,CCCCCCCCCCCCCCCCOCC(COCC(F)(F)F)OP(=O)(O)OC (stereo not shown) [MJ33],Prevents capacitation-associated tyrosine phosphorylation by PKA
13,COCC(=O)O[C@]1(CCN(C)CCCc2nc3ccccc3[nH]2)CCc2cc(F)ccc2[C@@H]1C(C)C [Mibefradil],Blocks progesterone induced Ca^2+ response
14,CCCCN1C[C@H](O)[C@@H](O)[C@H](O)[C@H]1CO [Miglustat],Interferes with spermatogenesis
15,CC(C)[C@H]1c2ccc(F)cc2CC[C@@]1(CCN(C)CCCc1nc2ccccc2[nH]1)OC(=O)C1CC1 [NNC 55–0396 dihydrochloride],Blocks ccl-20 induced Ca^2+ response; Modulates CatSper
16,N=C(N)c1ccc2cc(OC(=O)c3ccc(N=C(N)N)cc3)ccc2c1 [Nafamostat],Interferes with liquefaction; reduces sperm motility
17,O=C(Nc1ccc([N+](=O)[O-])cc1Cl)c1cc(Cl)ccc1O [Niclosamide],Shape abnormality
18,O=C(O)c1cccnc1Nc1cccc(C(F)(F)F)c1 [Niflumic acid],Blocks acrosome reaction induced by recombinant rhZP3
19,Cc1ccc(S(=O)(=O)c2c(N)n(CC(O)c3ccc([N+](=O)[O-])cc3)c3nc4ccccc4nc23)cc1 (stereo not shown) [Oprea1_544341],Reduces sperm motility; role of glycolysis in sperm motility
20,C[C@@H]1O[C@@H](O[C@H]2C[C@@H](O)[C@]3(CO)[C@H]4[C@H](O)C[C@]5(C)[C@@H](C6=CC(=O)OC6)CC[C@]5(O)[C@@H]4CC[C@]3(O)C2)[C@H](O)[C@H](O)[C@H]1O [Ouabain],Reduces sperm motility

row,Molecule,Published Phenotype
1,c1ccc2c(c1)SCc1c-2[nH]c2ccccc12 [PD 146176],Antagonizing negative effects of ROS on sperm function such as acrosome reaction
2,CN(c1ccccc1CNc1nc(Nc2ccc3c(c2)CC(=O)N3)ncc1C(F)(F)F)S(C)(=O)=O [PF 431396],Blocks capacitation
3,Cc1[nH]c(/C=C2\C(=O)Nc3ccc(S(=O)(=O)Cc4c(Cl)cccc4Cl)cc32)c(C)c1C(=O)N1CCC[C@@H]1CN1CCCC1 [Pha-665752],Modulates P4 evoked Ca^2+ response
4,c1cnc2c(c1)ccc1cccnc12 [Phenanthroline],Inhibit proteolytic activity of PSA
5,COC(=O)[C@]1(C)CC[C@]2(C)CC[C@]3(C)C4=CC=C5C(=CC(=O)C(O)=C5C)[C@]4(C)CC[C@@]3(C)[C@@H]2C1 [Pristimerin],Modulates sperm motility; reduces progesterone induced Ca^2+ response
6,CCOCc1nc2c(N)nc3ccccc3c2n1CC(C)(C)O [Resiquimod],Reduction of sperm motility; only sperm with X chromosome
7,[Na+].[Na+].[Na+].[O]=[V]([O-])([O-])[O-] [Sodium orthovanadate],Blocks progesterone induced acrosome reaction; blocks progesterone induced Ca^2+ response
8,CC(C)(O)c1ccn2c(-c3ccc(F)c(-c4ccc(F)cc4C#N)c3)cnc2c1F [TP 003],Enhances sperm motility
9,C=CC[C@@H]1/C=C(\C)C[C@H](C)C[C@H](OC)[C@H]2O[C@@](O)(C(=O)C(=O)N3CCCC[C@H]3C(=O)O[C@H](/C(C)=C/[C@@H]3CC[C@@H](O)[C@H](OC)C3)[C@H](C)[C@@H](O)CC1=O)[C@H](C)C[C@@H]2OC [Tacrolimus],Blocks progesterone induced acrosome reaction
10,COc1cn(-c2ccc(-n3cccn3)cc2F)nc(-c2ccnn2-c2ccccc2)c1=O [Tak-063],Enhances sperm motility
11,CCOc1ccccc1OCCN[C@H](C)Cc1ccc(OC)c(S(N)(=O)=O)c1 [Tamsulosin],Interferes with ejaculation
12,O=c1sn(-c2cccc3ccccc23)c(=O)n1Cc1ccccc1 [Tideglusib],Spermicidal; vaginal treatment
13,Nc1ccc(-c2ccc3ncc4ccc(=O)n(-c5cccc(C(F)(F)F)c5)c4c3c2)cn1 [Torin 2],Enhances sperm motility
14,COc1ccc(CCCN2CCC(COC(c3ccccc3)c3ccccc3)CC2)cc1 [UK 78282 hydrochloride],Modulates Ca^2+ response
15,O.O.O.OO.OO.[K+].[OH-].[V].c1cnc2c(c1)ccc1cccnc12 [bpV(phen)],Blocks progesterone induced acrosome reaction; blocks progesterone induced Ca^2+ response
16,CC(C)(C)c1ccc(S(=O)(=O)Nc2cnc3[nH]c(C(=O)N[C@H]4CCC[C@H]4O)c(-c4ccccc4)c3c2)cc1 [compound 68853496],Patent; sAC inhibitor
17,NVP-AEW541,Inhibition of hyperactivity
18,B1,Interferes with liquefaction; reduces sperm motility
